Laboratory results taken from ChEMBL document CHEMBL1250512, “Bile acid toxicity structure-activity relationships: correlations between cell viability and lipophilicity in a panel of new and known bile acids using an oesophageal cell line (HET-1A)” (Bioorg Med Chem, 2010).

Experiments:
[1] = Cytotoxicity against human HET-1A cells assessed as cell viability after 24 hrs by MTT assay; assay type: cell-based
[2] = Cytotoxicity against human HET-1A cells assessed as cell viability at 500 uM after 24 hrs by MTT assay relative to control; assay type: cell-based
[3] = Cytotoxicity against human HuH7 cells assessed as cell viability at 500 uM after 24 hrs by MTT assay relative to control; assay type: cell-based, Huh-7
[4] = Cytotoxicity against human HET-1A cells assessed as cell viability at >1 mM after 24 hrs by MTT assay; assay type: cell-based

Structure (SMILES)	CC50 at 24 h [1] [µM]	viability at 24 h, 500 µM [2] [%]	viability at 24 h, 500 µM [3] [%]	Activity [4]
C[C@H](CCC(=O)O)[C@H]1CC[C@H]2[C@@H]3[C@H](O)C[C@@H]4C[C@H](O)CC[C@]4(C)[C@H]3C[C@H](O)[C@]12C [CHOLIC ACID]	1080	102	90.8	–
C[C@H](CC(=O)O)[C@H]1CC[C@H]2[C@@H]3[C@@H](O)C[C@@H]4C[C@H](O)CC[C@]4(C)[C@H]3CC[C@]12C [NORUCHOLIC ACID]	–	88.8	71.8	–
C[C@H](CCC(=O)O)[C@H]1CC[C@H]2[C@@H]3[C@@H](O)C[C@@H]4C[C@H](O)CC[C@]4(C)[C@H]3CC[C@]12C [URSODIOL]	1310	78.8	74	–
C[C@H](CCC(=O)O)[C@H]1CC[C@H]2[C@@H]3[C@@H](O)C[C@@H]4C[C@H](N=[N+]=[N-])CC[C@]4(C)[C@H]3CC[C@]12C	45	36.8	26.6	–
C[C@H](CCC(=O)O)[C@H]1CC[C@H]2[C@@H]3[C@@H](N=[N+]=[N-])C[C@@H]4C[C@H](O)CC[C@]4(C)[C@H]3CC[C@]12C	99	29	64.1	–
C[C@H](CCC(=O)O)[C@H]1CC[C@H]2[C@@H]3CC[C@@H]4C[C@H](O)CC[C@]4(C)[C@H]3CC[C@]12C [LITHOCHOLIC ACID]	25	41.7	63.7	–
C[C@H](CCC(=O)O)[C@H]1CC[C@H]2[C@@H]3[C@@H](O)C[C@@H]4C[C@@H](N=[N+]=[N-])CC[C@]4(C)[C@H]3CC[C@]12C	37	30.3	101	–
COC(=O)CC[C@@H](C)[C@H]1CC[C@H]2[C@@H]3[C@@H](O)C[C@@H]4C[C@H](O)CC[C@]4(C)[C@H]3CC[C@]12C	–	94.3	81.2	–
CC(=O)O[C@@H]1CC[C@@]2(C)[C@H](CC(=O)[C@@H]3[C@@H]2CC[C@]2(C)[C@@H]([C@H](C)CCC(=O)O)CC[C@@H]32)C1	366	47.2	77.7	–
C[C@H](CCC(N)=O)[C@H]1CC[C@H]2[C@@H]3CC[C@@H]4C[C@H](O)CC[C@]4(C)[C@H]3C[C@H](O)[C@]12C	39	38.6	25.2	–
C[C@H](CCC(=O)O)[C@H]1CC[C@H]2[C@@H]3CC[C@@H]4C[C@H](O)CC[C@]4(C)[C@H]3C[C@H](O)[C@]12C [DEOXYCHOLIC ACID]	257	41.2	57	–
C[C@H](CCCN=[N+]=[N-])[C@H]1CC[C@H]2[C@@H]3[C@@H](O)C[C@@H]4C[C@H](O)CC[C@]4(C)[C@H]3CC[C@]12C	688	75.9	45.1	–
C[C@H](CCC(=O)O)[C@H]1CC[C@H]2[C@@H]3[C@@H](O)C[C@@H]4C[C@H](O)CC[C@]4(C)[C@H]3C[C@H](O)[C@]12C	–	80.8	82.3	–
C[C@H](CCC(=O)O)[C@H]1CC[C@H]2[C@@H]3C(=O)C[C@@H]4CC(=O)CC[C@]4(C)[C@H]3CC[C@]12C	–	93.5	54.6	–
C[C@H](CCC(=O)O)[C@H]1CC[C@H]2[C@@H]3CC[C@@H]4C[C@H](O)CC[C@]4(C)[C@H]3CC(=O)[C@]12C	–	81.8	80.6	–
C[C@H](CCC#N)[C@H]1CC[C@H]2[C@@H]3[C@@H](O)C[C@@H]4C[C@H](O)CC[C@]4(C)[C@H]3CC[C@]12C	–	94	85.2	–

Structure (SMILES)	CC50 at 24 h [1] [µM]	viability at 24 h, 500 µM [2] [%]	viability at 24 h, 500 µM [3] [%]	Activity [4]
C[C@H](CCC(=O)O)[C@H]1CC[C@H]2[C@@H]3CC[C@@H]4C[C@H](N=[N+]=[N-])CC[C@]4(C)[C@H]3C[C@H](O)[C@]12C	71	30.7	37.1	–
C[C@H](CCC(=O)NCC(=O)O)[C@H]1CC[C@H]2[C@@H]3[C@@H](O)C[C@@H]4C[C@H](O)CC[C@]4(C)[C@H]3CC[C@]12C [GLYCOURSODEOXYCHOLIC ACID]	–	109	104	–
C[C@H](CCC(=O)O)[C@H]1CC[C@H]2[C@@H]3CC[C@@H]4C[C@@H](N=[N+]=[N-])CC[C@]4(C)[C@H]3C[C@H](O)[C@]12C	97	35.4	108	–
C[C@H](C#N)[C@H]1CC[C@H]2[C@@H]3[C@@H](O)C[C@@H]4C[C@H](O)CC[C@]4(C)[C@H]3CC[C@]12C	–	80.5	87.3	–
COC(=O)CC[C@@H](C)[C@H]1CC[C@H]2[C@@H]3CC[C@@H]4C[C@H](O)CC[C@]4(C)[C@H]3C[C@H](O)[C@]12C [METHYL DEOXYCHOLATE]	46	28.1	48.8	–
C[C@H](CCC(=O)O)[C@H]1CC[C@H]2[C@@H]3CC[C@@H]4C[C@H](O)CC[C@]4(C)[C@H]3C[C@@H](O)[C@]12C [LAGODEOXYCHOLATE]	389	59	89	–
C[C@H](CCC(=O)O)[C@H]1CC[C@H]2[C@@H]3[C@H](O)C[C@@H]4C[C@H](O)CC[C@]4(C)[C@H]3CC[C@]12C [CHENODIOL]	216	42.2	72.3	–
C[C@H](CCC(=O)O)[C@H]1CC[C@H]2[C@@H]3C[C@H](O)[C@@H]4C[C@H](O)CC[C@]4(C)[C@H]3CC[C@]12C [HYODEOXYCHOLIC_ACID]	–	88.2	73.8	–
C[C@H](CCC(=O)O)[C@H]1CC[C@H]2[C@@H]3C(=O)C[C@@H]4CC(=O)CC[C@]4(C)[C@H]3CC(=O)[C@]12C [DEHYDROCHOLIC ACID]	–	111	54.4	–
C[C@H](CCCO)[C@H]1CC[C@H]2[C@@H]3[C@@H](O)C[C@@H]4C[C@H](O)CC[C@]4(C)[C@H]3CC[C@]12C	–	97.5	44.5	–
C[C@H](CCC(=O)O)[C@H]1CC[C@H]2[C@@H]3[C@@H](O)C[C@@H]4CCCC[C@]4(C)[C@H]3CC[C@]12C	30	39.9	23.7	–
C[C@H](CCC(=O)NCC(=O)O)[C@H]1CC[C@H]2[C@@H]3CC[C@@H]4C[C@H](O)CC[C@]4(C)[C@H]3C[C@H](O)[C@]12C [GLYCODEOXYCHOLATE]	1240	111	105	Toxic
C[C@H](CCC(=O)NCC(=O)O)[C@H]1CC[C@H]2[C@@H]3[C@H](O)C[C@@H]4C[C@H](O)CC[C@]4(C)[C@H]3CC[C@]12C [GLYCOCHENODEOXYCHOLATE]	729	130	105	Toxic
C[C@H](C(=O)O)[C@H]1CC[C@H]2[C@@H]3[C@@H](O)C[C@@H]4C[C@H](O)CC[C@]4(C)[C@H]3CC[C@]12C	799	80.5	74.8	–
C[C@H](CCC(=O)O)[C@H]1CC[C@H]2[C@@H]3C(=O)C[C@@H]4C[C@H](O)CC[C@]4(C)[C@H]3CC[C@]12C	–	76.9	75.6	–
C[C@H](CCC(=O)NCC(=O)O)[C@H]1CC[C@H]2[C@@H]3[C@H](O)C[C@@H]4C[C@H](O)CC[C@]4(C)[C@H]3C[C@H](O)[C@]12C [GLYCOCHOLIC ACID]	–	105	87.7	–
